Source: patent US20130053372A1, “5-HT RECEPTOR MODULATORS” (Cambridge Enterprise Limited, priority 2010, published 2013)
Where a name gives a salt, the structure may show the parent alone.

How the values were obtained:
rat r5-HT1B receptors = biological target: T1, rat r5-HT1B receptors (Rattus norvegicus, UniProt P28564); assay: Binding affinity at rat r5-HT1B receptors, rat cerebral cortex membrane binding (RBA); conditions: value in parentheses; monohydrochloride salt
T1 construct: from tissue
T1 sequence (P28564 whole entry): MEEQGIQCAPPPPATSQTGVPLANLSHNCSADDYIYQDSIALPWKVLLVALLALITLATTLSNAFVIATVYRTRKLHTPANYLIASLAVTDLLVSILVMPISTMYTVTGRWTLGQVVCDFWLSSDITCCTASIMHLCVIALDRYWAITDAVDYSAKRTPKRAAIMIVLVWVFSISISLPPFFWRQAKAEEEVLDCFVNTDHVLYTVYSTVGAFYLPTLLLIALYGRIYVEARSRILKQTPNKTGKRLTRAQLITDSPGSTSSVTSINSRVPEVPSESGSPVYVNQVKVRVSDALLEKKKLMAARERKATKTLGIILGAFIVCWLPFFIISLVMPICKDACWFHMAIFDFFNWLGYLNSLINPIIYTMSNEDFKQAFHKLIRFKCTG
Protocol: Binding Protocol for Determination of Affinity at rat r5-HT 1B Receptors (RBA)
This binding affinity protocol was performed according to standard conditions disclosed in Eur. J. Pharmacol. 1985, 118, 1-12.

[1] = test system: chronically hypoxic murine model of pulmonary arterial hypertension (PAH); assay: Effect on development of hypoxia-induced pulmonary hypertension (haemodynamics, right ventricular hypertrophy); format: in vivo, Mice (C57B/6J); conditions: mice
Protocol: Protocol for the Determination of the Effect on the Development of Hypoxia-Induced Pulmonary Hypertension.
Mice (C57B/6J, male, 2 months) were exposed to 14 days of hypobaric hypoxia (equivalent to 10% O2) or normoxia, as described in MacLean, M. R. et al. Circulation 2008, 117, 2928-2937 and MacLean, M. R. et al. Circulation 2004,109, 2150-2155. Mice were dosed either with vehicle (dH2O) or 82 (15 mg/kg/day) for 14 days. Haemodynamic Measurements: Heart rate, right ventricular pressure and systemic arterial pressure were measured and analysed as described in MacLean, M. R. et al. Circulation 2008, 117, 2928-2937 and MacLean, M. R. et al. Circulation 2004,109, 2150-2155. Briefly, right ventricular pressure was measured via transdiaphragmatic right heart catheterisation and systemic arterial pressure was measured via cannulation of the left common carotid artery. Lung Histology: Sagittal sections of lung were elastica-Van Gieson stained and microscopically assessed for the muscularisation of pulmonary arteries (<80 μm external diameter) in a blinded fashion as described in MacLean, M. R. et al. Circulation 2008, 117, 2928-2937 and MacLean, M. R. et al. Circulation 2004,109, 2150-2155. Remodelled arteries were confirmed by the presence of a double elastic laminae.
(§1) Lung sections from 5 mice for each group were studied. Approximately 150 arteries from each lung section (˜750 arteries in total for each group) were assessed. Right Ventricular Hypertrophy: Right ventricular hypertrophy (RVH) was assessed by weight measurement of the right ventricular free wall (RV) and left ventricle plus septum (LV+S). The ratio expressed is RV/LV+S. RVH measurements from 6 to 8 mice for each group were assessed. Myography: Small pulmonary arteries (PAs) of ˜350 μm internal diameter (i.d.) were set up on wire myographs as described in MacLean M. R. et al. J Pharmacol Exp Ther. 2005, 313, 539-548. Briefly, PAs from normoxic mice were set up at tensions equivalent to their mean in vivo right ventricular pressure (RVP) (12-15 mmHg), whereas PAs from hypoxic mice were set up at tensions equivalent to the elevated in vivo mean pressures observed after exposure to hypoxia (25-30 mmHg). After a 45-min equilibration period, the response to 50 mM KCl was determined. Cumulative response curves were constructed in the presence and absence of the antagonist which was allowed a 45-min equilibrium period before constructing the curves.
The effects of 82 on a chronically hypoxic murine model of pulmonary arterial hypertension (PAH) were assessed. Four small groups of n=3 or 4 were used. The results are illustrated in FIGS. 13-17 (see also description of figures, above).

[2] = test system: intralobar pulmonary arteries from hypoxic mice; assay: Myography of pulmonary arteries: vasoreactivity to 5-HT; set-up: species or system Mice (C57B/6J); conditions: 15 mg/kg/day
Protocol: as §1

In the case of `CN1CCN(c2nc(N3CCN(c4ccccc4)C3=O)cc3ccoc23)CC1` [Example 82, 1-(7-(4-Methylpiperazin-1-yl)furo[2,3-c]pyridin-5-yl)-3-phenylimidazolidin-2-one hydrochloride], the IC50 (rat r5-HT1B receptors) is reported as 110 nM, the “effect on heart rate (HR)” value ([1]; 15 mg/kg/day) is reported as “no significant effect” and the “effect on mean systemic arterial pressure (mSAP)” value ([1]; 15 mg/kg/day) is reported as “no significant effect”. The “hypoxia-induced increases in systolic right ventricular pressure (sRVP)” value ([1]; 15 mg/kg/day for 14 days, hypobaric hypoxia) was “significantly attenuated”, the “hypoxia-induced right ventricular hypertrophy (RVH)” value ([1]; 15 mg/kg/day for 14 days, hypobaric hypoxia, RV/LV+S) was “significantly attenuated” and the “effect on the increase in contractility to 5HT in intralobar pulmonary arteries from hypoxic mice” value [2] was “no effect”.
